In data set [1] the test system is thermal nociception in naïve rats. The conditions noted are these: 1.6 μg i.t.
Data set [2] deals with hERG channel (Homo sapiens, UniProt Q12809). In words: in vitro.

Our source for the motor activity and IC50 values is US20260001922A1, “PEPTIDES TARGETING SODIUM CHANNELS TO TREAT PAIN” (priority 2022, published 2026).

Molecules are shown by their SMILES. Positions of bridges follow the written chain, without caps; N, C: chain ends. Residues, ends and D or L forms follow the SMILES beside them.

What is called IC50 is the concentration that inhibits the measured activity by half.

hERG channel, sequence (Q12809 whole entry): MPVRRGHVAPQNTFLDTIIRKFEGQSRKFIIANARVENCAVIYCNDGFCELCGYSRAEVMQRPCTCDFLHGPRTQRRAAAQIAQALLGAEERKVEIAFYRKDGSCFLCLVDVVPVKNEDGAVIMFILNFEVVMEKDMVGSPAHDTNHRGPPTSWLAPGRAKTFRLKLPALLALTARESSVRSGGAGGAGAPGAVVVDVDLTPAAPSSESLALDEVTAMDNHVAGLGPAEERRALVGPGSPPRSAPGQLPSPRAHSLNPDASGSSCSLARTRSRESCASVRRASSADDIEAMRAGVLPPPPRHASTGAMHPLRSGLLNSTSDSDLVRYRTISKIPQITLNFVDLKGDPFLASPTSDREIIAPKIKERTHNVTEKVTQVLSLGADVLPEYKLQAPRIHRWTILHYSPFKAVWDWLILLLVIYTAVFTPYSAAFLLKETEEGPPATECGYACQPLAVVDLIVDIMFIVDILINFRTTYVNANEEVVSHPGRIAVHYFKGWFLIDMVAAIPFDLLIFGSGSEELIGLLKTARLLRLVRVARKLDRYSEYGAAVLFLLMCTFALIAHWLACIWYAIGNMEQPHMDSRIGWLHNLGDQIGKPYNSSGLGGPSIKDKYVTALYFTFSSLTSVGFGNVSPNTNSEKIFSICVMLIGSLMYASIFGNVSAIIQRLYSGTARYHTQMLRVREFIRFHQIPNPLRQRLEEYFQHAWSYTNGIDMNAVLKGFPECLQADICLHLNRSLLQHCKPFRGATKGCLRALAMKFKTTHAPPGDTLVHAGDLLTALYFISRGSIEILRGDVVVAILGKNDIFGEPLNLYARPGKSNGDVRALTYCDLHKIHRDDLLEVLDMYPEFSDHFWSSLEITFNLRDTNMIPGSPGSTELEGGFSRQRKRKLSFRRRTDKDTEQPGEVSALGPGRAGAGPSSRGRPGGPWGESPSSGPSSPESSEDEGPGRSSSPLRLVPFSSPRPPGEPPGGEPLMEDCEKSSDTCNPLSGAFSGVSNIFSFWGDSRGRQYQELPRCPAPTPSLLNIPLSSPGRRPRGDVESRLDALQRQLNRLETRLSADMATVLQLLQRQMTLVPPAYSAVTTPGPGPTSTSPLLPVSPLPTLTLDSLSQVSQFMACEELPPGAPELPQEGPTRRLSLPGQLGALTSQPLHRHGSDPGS

With `CSCC[C@@H]1NC(=O)[C@H](Cc2c[nH]c3ccccc23)NC(=O)[C@H](CCCCN)NC(=O)[C@H](CCC(N)=O)NC(=O)[C@@H](NC(=O)[C@@H](N)CCC(N)=O)CSSC[C@@H]2NC(=O)[C@@H]3CSSC[C@@H](C(=O)N[C@@H](CCCNC(=N)N)C(=O)N[C@@H](CCCCN)C(=O)N[C@@H](CCC(=O)O)C(=O)N[C@@H](CC(C)C)C(=O)N[C@@H](CC(C)C)C(N)=O)NC(=O)[C@H](Cc4c[nH]c5ccccc45)NC(=O)[C@H](CC(C)C)NC(=O)[C@H](CCCNC(=N)N)NC(=O)[C@H](CSSC[C@H](NC(=O)[C@H]([C@@H](C)O)NC(=O)[C@H](CCC(N)=O)NC1=O)C(=O)N[C@@H](CC(=O)O)C(=O)N[C@@H](CCCCN)C(=O)N[C@@H](CC(=O)O)C(=O)N[C@@H](CCCNC(=N)N)C(=O)N[C@@H](CCCCN)C(=O)N3)NC(=O)[C@H](CCCNC(=N)N)NC(=O)[C@H](Cc1ccccc1)NC(=O)CNC(=O)[C@H](CCC(=O)O)NC2=O` [PTx2-3127] (H-QCQKWMQTCDKDRKCCEGFRCRLWCRKELL-NH2; disulfide 2-16, 9-21, 15-25), in data set [1], the motor activity result is given as “did not lame or significantly alter motor activity”. The compound `CSCC[C@@H]1NC(=O)[C@H](Cc2c[nH]c3ccccc23)NC(=O)[C@H](CCCCN)NC(=O)[C@H](CCC(N)=O)NC(=O)[C@@H](NC(=O)[C@@H](N)Cc2c[nH]cn2)CSSC[C@@H]2NC(=O)[C@@H]3CSSC[C@@H](C(=O)N[C@@H](CCCNC(=N)N)C(=O)N[C@@H](CCCCN)C(=O)N[C@@H](CCC(=O)O)C(=O)N[C@@H](CC(C)C)C(=O)N[C@@H](CC(C)C)C(N)=O)NC(=O)[C@H](Cc4c[nH]c5ccccc45)NC(=O)[C@H](CC(C)C)NC(=O)[C@H](CCCNC(=N)N)NC(=O)[C@H](CSSC[C@H](NC(=O)[C@H]([C@@H](C)O)NC(=O)[C@H](CCC(N)=O)NC1=O)C(=O)N[C@@H](CC(=O)O)C(=O)N[C@@H](CCCCN)C(=O)N[C@@H](CC(=O)O)C(=O)N[C@@H](CCCNC(=N)N)C(=O)N[C@@H](CCCCN)C(=O)N3)NC(=O)[C@H](CCCNC(=N)N)NC(=O)[C@H](Cc1ccccc1)NC(=O)CNC(=O)[C@H](CCC(=O)O)NC2=O` [PTx2-3258] yielded an IC50 in data set [2] of 1000 nM.
